Holding throughout (assay type): cell-based
Experiment [1] has as its target T1, Toll-like receptor 4 (Mus musculus) (UniProt Q9QUK6).
T1 sequence (whole entry): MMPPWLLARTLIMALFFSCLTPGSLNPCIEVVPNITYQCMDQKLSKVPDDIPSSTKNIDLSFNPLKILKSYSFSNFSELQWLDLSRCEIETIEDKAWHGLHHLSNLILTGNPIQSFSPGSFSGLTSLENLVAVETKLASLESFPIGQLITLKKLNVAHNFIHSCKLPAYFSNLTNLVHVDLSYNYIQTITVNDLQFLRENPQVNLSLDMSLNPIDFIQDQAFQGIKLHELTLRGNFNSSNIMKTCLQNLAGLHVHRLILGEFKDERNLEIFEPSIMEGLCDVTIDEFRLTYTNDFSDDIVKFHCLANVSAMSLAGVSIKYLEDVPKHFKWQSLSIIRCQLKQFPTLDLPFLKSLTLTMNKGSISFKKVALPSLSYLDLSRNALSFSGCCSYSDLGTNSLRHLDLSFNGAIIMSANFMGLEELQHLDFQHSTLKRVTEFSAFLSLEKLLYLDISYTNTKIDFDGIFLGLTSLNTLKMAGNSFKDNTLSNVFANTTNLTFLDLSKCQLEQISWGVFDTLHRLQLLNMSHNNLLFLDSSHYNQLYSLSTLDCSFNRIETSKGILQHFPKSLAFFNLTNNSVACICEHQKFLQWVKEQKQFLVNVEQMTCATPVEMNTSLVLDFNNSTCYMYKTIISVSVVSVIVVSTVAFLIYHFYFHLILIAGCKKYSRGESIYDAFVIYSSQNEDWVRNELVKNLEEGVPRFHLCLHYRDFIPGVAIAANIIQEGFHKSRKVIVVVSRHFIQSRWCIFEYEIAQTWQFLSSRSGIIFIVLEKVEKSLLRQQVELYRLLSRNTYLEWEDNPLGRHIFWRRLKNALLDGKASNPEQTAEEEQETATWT
In words: Inhibition of LPS binding to TLR4 in IFNgamma-stimulated mouse RAW264.7 cells assessed as reduction in iNOS expression at 100 uM by Western blot analysis.

Experiment [2] has as its target T1, Toll-like receptor 4 (Mus musculus). In words: Inhibition of LPS binding to TLR4 in IFNgamma-stimulated mouse RAW264.7 cells assessed as suppression of IFNgamma mRNA expression at 100 uM by qRT-PCR analysis. On the technique in general: Quantitative PCR measures a nucleic acid by following its amplification.
The target is the same in experiment [3]. In words: Inhibition of LPS binding to TLR4 in IFNgamma-stimulated mouse RAW264.7 cells assessed as suppression of IL6 mRNA expression at 100 uM by qRT-PCR analysis.
Experiment [4] has the same target. In words: Inhibition of LPS binding to TLR4 in IFNgamma-stimulated mouse RAW264.7 cells assessed as suppression of IL-12 mRNA expression at 100 uM by qRT-PCR analysis.
Experiment [5] has the same target. Briefly: Inhibition of LPS binding to TLR4 in IFNgamma-stimulated mouse RAW264.7 cells assessed as effect on ratio of phosphorylated TAK1 to total TAK1 at 100 uM measured after 120 mins by Western blot analysis relative to beta-actin (reference value: 3).
The target is the same in experiment [6]. Briefly: Inhibition of LPS binding to TLR4 in IFNgamma-stimulated mouse RAW264.7 cells assessed as effect on ratio of phosphorylated ERK to total ERK at 100 uM measured after 60 mins by Western blot analysis relative to beta-actin (reference value: 3). Background: A western blot detects proteins with antibodies after separation by electrophoresis.
Experiment [7] has the same target. In words: Inhibition of LPS binding to TLR4 in IFNgamma-stimulated mouse RAW264.7 cells assessed as effect on ratio of phosphorylated ERK to total ERK at 100 uM measured after 120 mins by Western blot analysis relative to beta-actin (reference value: 3).
Experiment [8] has the same target. Briefly: Inhibition of LPS binding to TLR4 in IFNgamma-stimulated mouse RAW264.7 cells assessed as effect on ratio of phosphorylated JNK to total JNK at 100 uM measured after 30 mins by Western blot analysis relative to beta-actin (reference value: 2.3).
The target is the same in experiment [9]. In words: Inhibition of LPS binding to TLR4 in IFNgamma-stimulated mouse RAW264.7 cells assessed as effect on ratio of phosphorylated JNK to total JNK at 100 uM measured after 60 mins by Western blot analysis relative to beta-actin (reference value: 1.4).
The target is the same in experiment [10]. In words: Inhibition of LPS binding to TLR4 in IFNgamma-stimulated mouse RAW264.7 cells assessed as effect on ratio of phosphorylated AKT to total AKT at 100 uM measured after 30 mins by Western blot analysis relative to beta-actin (reference value: 1.4).
For experiment [11] the target is unchanged. Briefly: Inhibition of LPS binding to TLR4 in IFNgamma-stimulated mouse RAW264.7 cells assessed as effect on ratio of phosphorylated NFkappaB to total NFkappaB at 100 uM measured after 15 mins by Western blot analysis relative to beta-actin (reference value: 4.7).
The target is the same in experiment [12]. Briefly: Inhibition of LPS binding to TLR4 in IFNgamma-stimulated mouse RAW264.7 cells assessed as effect on ratio of phosphorylated NFkappaB to total NFkappaB at 100 uM measured after 30 mins by Western blot analysis relative to beta-actin (reference value: 2.7).
The test system of experiment [13] is RAW264.7. In words: Inhibition of IFNgamma binding to IFNGR in LPS-stimulated mouse RAW264.7 cells assessed as effect on ratio of phosphorylated Stat1 to total Stat1 at 100 uM measured after 15 mins by Western blot analysis relative to beta-actin (reference value: 1.3).
For experiment [14], the system named is RAW264.7. In words: Inhibition of IFNgamma binding to IFNGR in LPS-stimulated mouse RAW264.7 cells assessed as effect on ratio of phosphorylated Stat1 to total Stat1 at 100 uM measured after 120 mins by Western blot analysis relative to beta-actin (reference value: 4.1).
In experiment [15] the target is T1, Toll-like receptor 4 (Mus musculus). Briefly: Inhibition of LPS binding to TLR4 in IFNgamma-stimulated mouse RAW264.7 cells assessed as suppression of NFkappaB nuclear translocation.

From ChEMBL document CHEMBL4261619, “Sentulic acid isolated from Sandoricum koetjape Merr attenuates lipopolysaccharide and interferon gamma co-stimulated nitric oxide production in murine macrophage RAW264 cells” (Bioorg Med Chem Lett, 2018) come the findings set out here.

Activity calls are given as the source filed them. The calls are words filed in the database; no cut-off is given here.

For the compound `C=C(C)[C@@H]1CC[C@]2(C)[C@H](CC=C3[C@@H]4CC(C)(C)CC[C@]4(C)CC[C@]32C(=O)O)[C@@]1(C)CCC(=O)O`, the inhibition entry in [1], in experiment [2], in experiment [3], in experiment [4] and in [15] was “Active” in each case. In addition, the fold change (FC) was 0.9 in [5]; 2.2 in experiment [6]; 2.2 in experiment [7]; 1.5 in [8]; 1.1 in [9]; 1.2 in [10]. In addition, the fold change (FC) in [11] is 2.9; in experiment [12] it was 1.6; with RAW264.7 [13], 1.2; in the experiment on RAW264.7 [14], 1.6.
